This test deals with T1, Jarid1A (Homo sapiens, UniProt P29375).
T1 construct: purchased BPS Bioscience 50110
T1 sequence (P29375 1-1090): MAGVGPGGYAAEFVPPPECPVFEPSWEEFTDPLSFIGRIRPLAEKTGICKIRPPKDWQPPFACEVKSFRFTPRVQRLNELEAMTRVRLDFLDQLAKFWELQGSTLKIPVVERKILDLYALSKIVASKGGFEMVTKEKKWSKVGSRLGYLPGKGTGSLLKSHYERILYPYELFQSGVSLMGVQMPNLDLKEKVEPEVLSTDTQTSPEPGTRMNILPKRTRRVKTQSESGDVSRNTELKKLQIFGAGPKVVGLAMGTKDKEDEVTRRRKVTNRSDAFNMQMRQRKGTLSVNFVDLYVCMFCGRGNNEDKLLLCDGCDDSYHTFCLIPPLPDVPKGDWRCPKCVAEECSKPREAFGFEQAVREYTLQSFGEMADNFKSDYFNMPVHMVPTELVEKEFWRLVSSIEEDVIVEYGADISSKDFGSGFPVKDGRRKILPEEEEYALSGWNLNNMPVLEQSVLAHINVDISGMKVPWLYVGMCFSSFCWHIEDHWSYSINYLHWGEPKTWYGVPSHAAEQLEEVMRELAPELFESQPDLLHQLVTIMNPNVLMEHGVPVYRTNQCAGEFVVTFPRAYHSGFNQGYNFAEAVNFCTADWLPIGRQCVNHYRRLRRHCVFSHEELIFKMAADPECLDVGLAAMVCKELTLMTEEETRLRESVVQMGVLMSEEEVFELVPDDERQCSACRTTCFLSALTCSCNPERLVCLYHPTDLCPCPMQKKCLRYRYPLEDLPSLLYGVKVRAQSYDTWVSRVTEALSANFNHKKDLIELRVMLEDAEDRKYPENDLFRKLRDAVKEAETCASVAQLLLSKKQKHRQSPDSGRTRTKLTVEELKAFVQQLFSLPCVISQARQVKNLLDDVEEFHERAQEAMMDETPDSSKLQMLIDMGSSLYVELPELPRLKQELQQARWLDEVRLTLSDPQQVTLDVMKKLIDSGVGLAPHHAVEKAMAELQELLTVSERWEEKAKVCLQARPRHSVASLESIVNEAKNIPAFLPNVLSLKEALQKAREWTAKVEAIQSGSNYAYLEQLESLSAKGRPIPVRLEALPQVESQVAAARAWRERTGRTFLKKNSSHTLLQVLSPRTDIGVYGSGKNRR
The test can be described thus: Jarid1A in vitro enzyme inhibition assay (TR-FRET). The class given is biochemical. In a few lines:
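Demethylation of 300 nM biotin-H3K4me3 peptide by 1 nM baculovirus-expressed Jarid1A (aa 1–1090) with 2 μM α-ketoglutarate, Fe(II) and ascorbate, pH 7.3, 30 min at room temperature. Stopped with EDTA; H3K4me1-2 product detected by TR-FRET (Eu anti-H3K4me1-2/streptavidin-APC). IC50 fitted from 665/615 ratio over 11-point dilutions.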

What is called IC50 is the concentration at which inhibition is half-maximal. The compound `O=C(C1CC1)N1CC[C@H](n2cc(Oc3nc(O)c4ccncc4n3)cn2)C1` [Example 141, 2-({1-[(3S)-1-cyclopropanecarbonylpyrrolidin-3-yl]-1H-pyrazol-4-yl}oxy)pyrido[3,4-d]pyrimidin-4-ol] returned an IC50 of at most 100 nM.

`O=C(c1ccccc1)N1CC[C@H](n2cc(Oc3nc(O)c4ccncc4n3)cn2)C1` [Example 142, 2-({1-[(3S)-1-benzoylpyrrolidin-3-yl]-1H-pyrazol-4-yl}oxy)pyrido[3,4-d]pyrimidin-4-ol]: the IC50 is at most 100 nM. Under `O=C(C1CCNCC1)N1CC[C@H](n2cc(Oc3nc(O)c4ccncc4n3)cn2)C1` [Example 143, 2-({1-[(3S)-1-(piperidine-4-carbonyl)pyrrolidin-3-yl]-1H-pyrazol-4-yl}oxy)pyrido[3,4-d]pyrimidin-4-ol] stands at most 100 nM.

Consider `CNCC(=O)N1CC[C@H](n2cc(Oc3nc(O)c4ccncc4n3)cn2)C1` [Example 144, 1-[(3S)-3-[4-({4-hydroxypyrido[3,4-d]pyrimidin-2-yl}oxy)-1H-pyrazol-1-yl]pyrrolidin-1-yl]-2-(methylamino)ethan-1-one], for which the IC50 was at most 100 nM. The result for `Oc1nc(Oc2cnn([C@H]3CCN(c4ccccc4)C3)c2)nc2cnccc12` [Example 145, 2-({1-[(3S)-1-phenylpyrrolidin-3-yl]-1H-pyrazol-4-yl}oxy)pyrido[3,4-d]pyrimidin-4-ol] reads at most 100 nM. Under `Oc1nc(Oc2cnn([C@H]3CCN(c4ccc(F)cc4)C3)c2)nc2cnccc12` [Example 146, 2-({1-[(3S)-1-(4-fluorophenyl)pyrrolidin-3-yl]-1H-pyrazol-4-yl}oxy)pyrido[3,4-d]pyrimidin-4-ol] stands at most 100 nM; under `Oc1nc(Oc2cnn([C@H]3CCN(c4ccccc4F)C3)c2)nc2cnccc12` [Example 147, 2-({1-[(3S)-1-(2-fluorophenyl)pyrrolidin-3-yl]-1H-pyrazol-4-yl}oxy)pyrido[3,4-d]pyrimidin-4-ol], at most 100 nM; under `Oc1nc(Oc2cnn([C@H]3CCN(c4ccc(Cl)cc4)C3)c2)nc2cnccc12` [Example 148, 2-({1-[(3S)-1-(4-chlorophenyl)pyrrolidin-3-yl]-1H-pyrazol-4-yl}oxy)pyrido[3,4-d]pyrimidin-4-ol], at most 100 nM. Regarding `Oc1nc(Oc2cnn([C@@H]3CCCNC3)c2)nc2cnccc12` [Example 149, 2-({1-[(3R)-piperidin-3-yl]-1H-pyrazol-4-yl}oxy)pyrido[3,4-d]pyrimidin-4-ol], the half-inhibitory concentration (IC50) was at most 100 nM.

The compound `CCS(=O)(=O)N1CCC[C@@H](n2cc(Oc3nc(O)c4ccncc4n3)cn2)C1` [Example 150, 2-({1-[(3R)-1-(ethanesulfonyl)piperidin-3-yl]-1H-pyrazol-4-yl}oxy)pyrido[3,4-d]pyrimidin-4-ol] showed an IC50 of at most 100 nM. Under `O=S(=O)(c1ccccc1)N1CCC[C@@H](n2cc(Oc3nc(O)c4ccncc4n3)cn2)C1` [Example 152, 2-({1-[(3R)-1-(benzenesulfonyl)piperidin-3-yl]-1H-pyrazol-4-yl}oxy)pyrido[3,4-d]pyrimidin-4-ol] stands at most 100 nM; under `CC(=O)N1CCC[C@@H](n2cc(Oc3nc(O)c4ccncc4n3)cn2)C1` [Example 153, 1-[(3R)-3-[4-({4-hydroxypyrido[3,4-d]pyrimidin-2-yl}oxy)-1H-pyrazol-1-yl]piperidin-1-yl]ethan-1-one], at most 100 nM; under `N#CCC(=O)N1CCC[C@@H](n2cc(Oc3nc(O)c4ccncc4n3)cn2)C1` [Example 154, 3-[(3R)-3-[4-({4-hydroxypyrido[3,4-d]pyrimidin-2-yl}oxy)-1H-pyrazol-1-yl]piperidin-1-yl]-3-oxopropanenitrile], at most 100 nM. Under `O=C(CO)N1CC[C@H](n2cc(Oc3nc(O)c4ccncc4n3)cn2)C1` [Example 155, 2-hydroxy-1-[(3S)-3-[4-({4-hydroxypyrido[3,4-d]pyrimidin-2-yl}oxy)-1H-pyrazol-1-yl]pyrrolidin-1-yl]ethan-1-one] stands at most 100 nM.

The compound `O=C(C1CC1)N1CCC[C@@H](n2cc(Oc3nc(O)c4ccncc4n3)cn2)C1` [Example 156, 2-({1-[(3R)-1-cyclopropanecarbonylpiperidin-3-yl]-1H-pyrazol-4-yl}oxy)pyrido[3,4-d]pyrimidin-4-ol] showed an IC50 of at most 100 nM. Under `O=C(c1ccccc1)N1CCC[C@@H](n2cc(Oc3nc(O)c4ccncc4n3)cn2)C1` [Example 157, 2-({1-[(3R)-1-benzoylpiperidin-3-yl]-1H-pyrazol-4-yl}oxy)pyrido[3,4-d]pyrimidin-4-ol] stands at most 100 nM; under `Oc1nc(Oc2cnn([C@@H]3CCCN(Cc4ccccc4)C3)c2)nc2cnccc12` [Example 158, 2-({1-[(3R)-1-benzylpiperidin-3-yl]-1H-pyrazol-4-yl}oxy)pyrido[3,4-d]pyrimidin-4-ol], at most 100 nM; under `Oc1nc(Oc2cnn([C@@H]3CCCN(c4ccc(F)cc4)C3)c2)nc2cnccc12` [Example 159, 2-({1-[(3R)-1-(4-fluorophenyl)piperidin-3-yl]-1H-pyrazol-4-yl}oxy)pyrido[3,4-d]pyrimidin-4-ol], at most 100 nM. Under `Oc1nc(Oc2cnn([C@H]3CCCNC3)c2)nc2cnccc12` [Example 160, 2-({1-[(3S)-piperidin-3-yl]-1H-pyrazol-4-yl}oxy)pyrido[3,4-d]pyrimidin-4-ol] stands at most 100 nM. Under `CCS(=O)(=O)N1CCC[C@H](n2cc(Oc3nc(O)c4ccncc4n3)cn2)C1` [Example 161, 2-({1-[(3S)-1-(ethanesulfonyl)piperidin-3-yl]-1H-pyrazol-4-yl}oxy)pyrido[3,4-d]pyrimidin-4-ol] stands at most 100 nM; under `O=S(=O)(C1CC1)N1CCC[C@H](n2cc(Oc3nc(O)c4ccncc4n3)cn2)C1` [Example 162, 2-({1-[(3S)-1-(cyclopropanesulfonyl)piperidin-3-yl]-1H-pyrazol-4-yl}oxy)pyrido[3,4-d]pyrimidin-4-ol], at most 100 nM.

For `O=S(=O)(c1ccccc1)N1CCC[C@H](n2cc(Oc3nc(O)c4ccncc4n3)cn2)C1` [Example 163, 2-({1-[(3S)-1-(benzenesulfonyl)piperidin-3-yl]-1H-pyrazol-4-yl}oxy)pyrido[3,4-d]pyrimidin-4-ol], the concentration for half-maximal inhibition (IC50) was at most 100 nM. Under `CC(=O)N1CCC[C@H](n2cc(Oc3nc(O)c4ccncc4n3)cn2)C1` [Example 164, 1-[(3S)-3-[4-({4-hydroxypyrido[3,4-d]pyrimidin-2-yl}oxy)-1H-pyrazol-1-yl]piperidin-1-yl]ethan-1-one] stands at most 100 nM; under `O=C(C1CC1)N1CCC[C@H](n2cc(Oc3nc(O)c4ccncc4n3)cn2)C1` [Example 165, 2-({1-[(3S)-1-cyclopropanecarbonylpiperidin-3-yl]-1H-pyrazol-4-yl}oxy)pyrido[3,4-d]pyrimidin-4-ol], at most 100 nM; under `N#CCC(=O)N1CCC[C@H](n2cc(Oc3nc(O)c4ccncc4n3)cn2)C1` [Example 166, 3-[(3S)-3-[4-({4-hydroxypyrido[3,4-d]pyrimidin-2-yl}oxy)-1H-pyrazol-1-yl]piperidin-1-yl]-3-oxopropanenitrile], at most 100 nM. Under `O=C(c1ccccc1)N1CCC[C@H](n2cc(Oc3nc(O)c4ccncc4n3)cn2)C1` [Example 167, 2-({1-[(3S)-1-benzoylpiperidin-3-yl]-1H-pyrazol-4-yl}oxy)pyrido[3,4-d]pyrimidin-4-ol] stands at most 100 nM; under `Oc1nc(Oc2cnn([C@H]3CCCN(Cc4ccccc4)C3)c2)nc2cnccc12` [Example 168, 2-({1-[(3S)-1-benzylpiperidin-3-yl]-1H-pyrazol-4-yl}oxy)pyrido[3,4-d]pyrimidin-4-ol], at most 100 nM. Under `Oc1nc(OCc2ccc(C(F)(F)F)cc2)nc2cnccc12` [Example 170, 2-{[4-(trifluoromethyl)phenyl]methoxy}pyrido[3,4-d]pyrimidin-4-ol] stands 1000 to 10000 nM; under `Oc1nc(OCc2ccccc2Cl)nc2cnccc12` [Example 171, 2-[(2-chlorophenyl)methoxy]pyrido[3,4-d]pyrimidin-4-ol], 1000 to 10000 nM. Consider `Oc1nc(OCc2c(Cl)cccc2Cl)nc2cnccc12` [Example 172, 2-[(2,6-dichlorophenyl)methoxy]pyrido[3,4-d]pyrimidin-4-ol], for which the IC50 lay within 1000 to 10000 nM. `Oc1nc(OCc2cccc(Cl)c2Cl)nc2cnccc12` [Example 173, 2-[(2,3-dichlorophenyl)methoxy]pyrido[3,4-d]pyrimidin-4-ol] registered an IC50 of 1000 to 10000 nM.

Source of the values: US10526327B2, “Histone demethylase inhibitors” (CELGENE QUANTICEL RESEARCH, INC., priority 2013, dated 2020).
